Test results reported in patent US5525629A, “Inhibition of cytokine production” (British Bio-Technology Limited, priority 1992, dated 1996).

Assays:
[1] = molecular target: stromelysin (Homo sapiens, UniProt P08254); experiment: inhibition of stromelysin (Cawston et al, acetylated 14C casein); type: biochemical; settings: 37°, 16 hours, pH 7.5
From the text: The casein was acetylated ^14 C casein prepared by the method of Cawston et al (ibid).

[2] = molecular target: T1, collagenase (Homo sapiens, UniProt P03956); experiment: inhibition of collagenase (Cawston and Barrett, acetylated 14C collagen); type: biochemical; settings: 37°, 16 hours, pH 7.5
T1 sequence (P03956 100-469): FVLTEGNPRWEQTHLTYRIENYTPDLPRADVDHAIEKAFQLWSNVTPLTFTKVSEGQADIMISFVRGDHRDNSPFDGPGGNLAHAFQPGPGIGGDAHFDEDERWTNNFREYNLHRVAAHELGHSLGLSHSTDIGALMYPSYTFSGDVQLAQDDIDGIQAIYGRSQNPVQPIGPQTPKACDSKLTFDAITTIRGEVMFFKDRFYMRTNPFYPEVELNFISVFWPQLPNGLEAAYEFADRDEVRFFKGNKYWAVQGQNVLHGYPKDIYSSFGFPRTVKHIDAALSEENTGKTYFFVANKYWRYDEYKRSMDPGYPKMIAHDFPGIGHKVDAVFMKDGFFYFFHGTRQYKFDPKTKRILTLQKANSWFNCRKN
From the text: The collagen was acetylated ^14 C collagen prepared by the method of Cawston and Murphy, (Methods in Enzymology, 80, 711, 1981), hereby incorporated by reference. The samples were centrifuged to sediment undigested collagen, and an aliquot of the radioactive supernatant removed for assay on a scintillation counter as a measure of hydrolysis.

[3] = tested on: TNF α release from a human monocytic cell line, U937; experiment: inhibition of PMA-stimulated TNF α release from U937 cells (TNF α ELISA); type: cell-based; settings: U-937, PMA 50 nM, 18 hours at 37° C., read-out: concentration of test compound which inhibits the release of TNF α by 50% relative to the control culture (IC50)
Method: The ability of example compounds of the invention to inhibit the release of TNF was investigated. The assay is based on the ability of phorbol myristate acetate (PMA) to stimulate the release of TNF α from a human monocytic cell line, U937.
U937 cells cultured in RPMI 1640 medium +5% foetal calf serum are centifuged at 1000×g for 5 minutes and then resuspended in medium at 2×10^6 /mi. 1 ml of cell suspension is aliquoted into individual wells of 24-well plates. Test compounds are dissolved in dimethyl sulphoxide (DMSO) at a stock concentration of 100 mM, then diluted to 50×the final required concentration with RPMI 1640 medium. 20 μl of the diluted compounds are added to U937 cells in duplicate wells. TNF α release is stimulated by addition of PMA to the cells at a final concentration of 50 nM. Appropriate control cultures are set up in duplicate. The plates are incubated for 18 hours at 37° C., 5% CO2, then centrifuged at 1000×g for 5 minutes. A specific ELISA for TNF α obtained from British Bio-technology Products Limited, Abingdon, England is used to measure TNF α levels in the culture supernatants
The average concentration of test compound which inhibits the release of TNF α by 50% relative to the control culture was assessed.

[4] = tested on: serum TNF; experiment: inhibition of endotoxin (LPS) induced TNF production in vivo (serum TNF by L929 cytotoxicity assay); set-up: species or system Male New Zealand rabbits
Method: The compound of Example 3 was assessed for its ability to inhibit release of endotoxin induced TNF production in vivo.
Male New Zealand rabbits, 2.5-3.0 kg, were anaesthetised with sodium pentobarbitone, 30 mg.kg^-1 via a marginal ear vein which was maintained by infusion at 18 mg.kg^-1.hr^-1 via a jugular vein. Following tracheotomy, the animals were ventilated, to maintain arterial blood […], and oxygen was added to the inspired air to maintain arterial blood PO2 above 100 mmHg. Both femoral veins were cannulated for the administration of endotoxin (LPS) and the infusion of test compound, 2.5 mg.kg^-1.hr^-1 at a rate of 6 ml.hr^-1, 15 minutes before the administration of LPS, 40 μg.kg^-1 i.v. bolus. Blood samples were collected from a femoral artery just before and at 30 minute intervals after the administration of LPS for a period of 4 hours.
The biological activity of TNF in serum test samples was determined using a cytotoxicity assay as described in Mathews, N. and Neale, M. L. in Lymphokines and Interferons, a Practical Approach, Eds. M. J. Clements, A. G. Morris, and A. J. H. Gearing, IRL Press, Oxford, UK.
100 μl volumes of L929 cell suspension at 10^5 cells/ml were dispensed into 96-well microtitre plates. The plates were incubated overnight to allow formation of an even monolayer. A series of dilutions of the test rabbit serum was made in a culture medium containing 2 μg/ml of actinomycin D to give a final concentration of 1 μg/ml when added to the cells. The L929 cells were incubated for 24 hours in the presence of test samples, and serially diluted human TNF α was used as the assay standard. After the incubation period, dead cells were removed by washing briefly with phosphate buffered saline, and remaining cells were fixed with 4% formaldehyde for 10 minutes. After washing the plates with water to remove the fixative, the cells were stained by the addition of 50 μl of 1% crystal violet to each well for 5 minutes. The plates were washed extensively with water and dried. Cells were solubilised by the addition of 100 μl/well of 30% acetic acid and the OD at 550 nm was determined. The TNF level in units/ml in the test samples was determined from the human TNF α standard curve. where 1 unit is the equivalent of 1 pg/ml human TNF α.

[5] = tested on: TNF production by leucocytes; settings: literature (Sampajo et al, 1991); cited from earlier work
[6] = tested on: TNF gene transcription; settings: literature; compared with corticosteroids, cyclosporin-A, FK506; cited from earlier work

Chain of stromelysin (P08254 100-477): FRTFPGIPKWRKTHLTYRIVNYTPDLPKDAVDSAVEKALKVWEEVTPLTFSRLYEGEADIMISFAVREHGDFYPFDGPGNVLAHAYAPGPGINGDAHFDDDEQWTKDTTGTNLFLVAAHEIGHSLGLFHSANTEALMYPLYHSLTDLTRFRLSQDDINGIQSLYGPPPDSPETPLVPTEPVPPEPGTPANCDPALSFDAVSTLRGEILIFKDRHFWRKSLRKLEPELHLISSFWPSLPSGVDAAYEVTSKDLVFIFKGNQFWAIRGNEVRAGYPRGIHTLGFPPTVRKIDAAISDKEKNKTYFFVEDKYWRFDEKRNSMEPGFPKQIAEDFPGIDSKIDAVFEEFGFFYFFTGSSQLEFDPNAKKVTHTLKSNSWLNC

IC50 [1] [nM] | IC50 [2] [nM] | IC50 [3] [nM] | SMILES | also measured
250 | 20 | – | CNC(=O)[C@H](CCC(=O)OC)NC(=O)[C@H](CC(C)C)[C@H](CSc1ccccc1)C(=O)NO [Example 1, 3R-(3-Methoxycarbonyl-1S-methylcarbamoyl-propylcarbamoyl)-5-methyl-2-S-phenylsulfanylmethyl hexanohydroxamic acid] | –
50 | 9 | < 50000 | CNC(=O)[C@H](CCC(=O)OC)NC(=O)[C@H](CC(C)C)[C@H](CSc1ccc(O)cc1)C(=O)NO [Example 3, 2S-(4-Hydroxyphenylsulfanylmethyl)-3R-(3-methoxycarbonyl-1S-methylcarbamoyl-propylcarbamoyl)-5-methyl-hexanohydroxamic acid] | Average % change in serum TNF level, LPS + test compound ([4]; 0 hrs from LPS bolus IV injection, infusion 2.5 mg.kg^-1.hr^-1 started 15 minutes before LPS 40 μg.kg^-1 i.v., n = 4): 0%; Average % change in serum TNF level, LPS + test compound ([4]; 1 hr from LPS bolus, infusion 2.5 mg.kg^-1.hr^-1, LPS alone (n = 5) +65): -58%; Average % change in serum TNF level, LPS + test compound ([4]; 2 hrs from LPS bolus, infusion 2.5 mg.kg^-1.hr^-1, LPS alone (n = 5) +55): -65%; Average % change in serum TNF level, LPS + test compound ([4]; 3 hrs from LPS bolus, infusion 2.5 mg.kg^-1.hr^-1, LPS alone (n = 5) -30): -99%; Average % change in serum TNF level, LPS + test compound ([4]; 4 hrs from LPS bolus, infusion 2.5 mg.kg^-1.hr^-1, LPS alone (n = 5) -100): -100%

The remaining lines, values behind:

SMILES | IC50 [1] [nM] | IC50 [2] [nM] | IC50 [3] [nM] | also measured
CNC(=O)[C@H](CCC(=O)OC)NC(=O)[C@H](CC(C)C)[C@H](CSc1cccs1)C(=O)NO [Example 2, 3R-(3-Methoxycarbonyl-1S-methylcarbamoyl-propylcarbamoyl)-5-methyl-2S-(thien-2-ylsulfanylmethyl)-hexanohydroxamic acid] | – | 15 | < 50000 | –
CNC(=O)[C@H](CCC(=O)OC(C)(C)C)NC(=O)[C@H](CC(C)C)[C@H](CSc1ccc(O)cc1)C(=O)NO [Example 12, 2S-(4-Hydroxyphenylsulfanylmethyl)-3R-(3-tertbutoxycarbonyl-1S-methylcarbamoyl-propylcarbamoyl)-5-methyl-hexanohydroxamic acid] | 40 | 20 | < 50000 | –
O=C1CCC(N2C(=O)c3ccccc3C2=O)C(=O)N1 (centres unmarked) [Thalidomide] | – | – | – | inhibition of TNF production by leucocytes [5]: inhibit TNF production by leucocytes
CC(=O)CCCCn1c(=O)c2c(ncn2C)n(C)c1=O [pentoxyfilline] | – | – | – | specificity of inhibition of TNF gene transcription [6]: more specific inhibitors of TNF gene transcription
